Results reported in patent publication US10322112B2, “Compound combinations for attenuation of bacterial virulence” (priority 2016, dated 2019).

Columns and labels:
RhlR [1] = biological target: T1, RhlR (Pseudomonas aeruginosa, UniProt P54292); test: E. coli reporter gene antagonism assay, RhlR; type: cell-based; conditions: compounds at 100 mm in the presence of 10 mm BHL; untreated culture = 100%; error ±10%; selected data reproduced from Welsh et al. 2015
T1 construct: expressed in transfected cells; host or cells: E. coli JLD271
T1 sequence (P54292 whole entry): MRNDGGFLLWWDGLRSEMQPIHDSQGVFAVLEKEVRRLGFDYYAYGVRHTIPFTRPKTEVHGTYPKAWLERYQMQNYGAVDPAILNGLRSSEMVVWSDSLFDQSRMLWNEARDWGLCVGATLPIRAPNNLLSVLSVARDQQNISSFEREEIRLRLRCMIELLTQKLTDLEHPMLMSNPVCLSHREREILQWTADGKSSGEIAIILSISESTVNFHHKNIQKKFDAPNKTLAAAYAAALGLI
Method: (§1) Percent agonism of a given non-native inducer in a given bacterium and QS system receptor is measured with resepct to the maximum level of agonism (activation) by the native ligand of that receptor in the given bacterium. Percent antagonism is measured in competitive assays. The QS system of interest is activated to 100% with added or endogenous native ligand and the % antagonism of the non-native inducer is assessed with respect to 100% activation by the native inducer. The native ligand which induces LasR is OdDHL, which induces RhlR is BHL and which induces PqsR is PQS. As described herein and in cited references, assays for assessment of % agonism or % atangonism may be performed in E. coli systems (heterologous) or in the bacterium of interest, e.g., Pseudomonas. Dependent upon the assay system employed native ligand may be endogenously present or it may be exogenously supplied to the assay system. […] In antagonism assays using the native strains with functional QS systems, e.g., those of P. aeruginosa, endogenous native ligand is made in the system, so no native ligand is added. In native strains having one or more non-functional QS systems (mutant strains), e.g., P. aeruginosa mutants with non-functional QS systems, native ligand is added at about 10-100× the EC50 of the native ligand. In the agonism assay, native ligand is added as a control. Details of the assays are provided herein in Example 9 and in references cited in Example 9.

QscR [2] = biological target: T2, QscR (Pseudomonas aeruginosa, UniProt G3XD77); type: cell-based; design: expressed in transfected cells; host or cells: E. coli JLD271; conditions: compounds at 100 mm against 15 nm OdDHL; E. coli reporter strain JLD271/pJN105Q/pSC11-Q; untreated culture = 100%; error ±10%
T2 sequence (G3XD77 entry or part of it): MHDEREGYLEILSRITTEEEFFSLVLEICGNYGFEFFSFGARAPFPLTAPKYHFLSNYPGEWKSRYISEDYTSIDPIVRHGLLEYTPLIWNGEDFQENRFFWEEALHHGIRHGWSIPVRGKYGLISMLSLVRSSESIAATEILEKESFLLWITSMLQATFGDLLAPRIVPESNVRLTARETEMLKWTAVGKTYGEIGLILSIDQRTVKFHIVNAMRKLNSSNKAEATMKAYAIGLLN
Text: (§2) Construction of pSC11-Q: A 348 bp fragment spanning the upstream region of PA1897 (¢304 to +43 relative to the PA1897 translationalstart codon) was amplified from plasmid pJL101*by using primers 5′-GAATAT GGATCC TCTCTC CGCAGA TACCTG-3′ (BamHI site underlined) SEQ ID NO:5 and 5′-GCTATT GAATTC TGAAGA TGAATA GCGCCAC-3′ (EcoRI site underlined) SEQ ID NO:6. The PCR-generated fragment was digested with EcoRI and BamHI and subsequently ligated into EcoRI/BamHI-digested pPROBE-KT to generate pPROBE-KQ2. […] CGCC-3′ (BamHI site underlined) SEQ ID NO:8. The PCR-generated fragment was digested with SalI and BamHI and subsequently ligated into SalI/BamHI-digested pSC11 to generate pSC11-Q.
(§3) E. coli reporter gene assays: Primary assays for RhlR, LasR, and QscR activity in E. coli JLD271 reporter (beta-galactosidase) strains were performed as reported by Welsh et al. 2015, with the following modifications:
(§4) For all primary and dose-response antagonism assays, the concentration of native ligand utilized was approximately equal to its EC50 value in each bacterial reporter strain. For RhlR, LasR, and QscR primary antagonism assays, synthetic ligand (100 mm) was screened against BHL (10 mm), OdDHL (2 nm), and OdDHL (15 nm), respectively. For RhlR, LasR, and QscR primary agonism assays, synthetic compound (100 mm) was screened alongside and compared to the natural ligand (900 mm BHL or 100 mm OdDHL) for the receptor. As part of the beta-galactosidase assay protocol, plates to which CPRG substrate had been added were incubated at either 25° C. (LasR assay) or 30° C. (RhlR and QscR assays) until positive control wells developed a deep red color (10 min for LasR, 30 min for RhlR, and 60 min for QscR). Dose-response reporter gene assays were performed according to these protocols by using varying concentrations of compound.

LasR [3] = biological target: T3, LasR (Pseudomonas aeruginosa, UniProt P25084); test: E. coli reporter gene primary antagonism assay, LasR; type: cell-based; conditions: compounds at 100 mm against 2 nm OdDHL; E. coli beta-galactosidase reporter strain JLD271/pJN105L/pSC11; untreated culture = 100%; negative values indicate receptor agonism; error ±10%
T3 construct: expressed in transfected cells; host or cells: E. coli JLD271
T3 sequence (P25084 whole entry): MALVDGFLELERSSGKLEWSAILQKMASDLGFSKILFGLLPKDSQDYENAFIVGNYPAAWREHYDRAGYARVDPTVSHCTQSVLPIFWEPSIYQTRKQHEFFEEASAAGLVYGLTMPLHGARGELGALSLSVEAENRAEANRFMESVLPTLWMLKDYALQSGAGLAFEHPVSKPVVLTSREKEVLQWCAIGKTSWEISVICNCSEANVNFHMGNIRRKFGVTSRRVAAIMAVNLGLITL
Method: as §1

QscR [4] = biological target: T2, QscR; conditions: compounds at 100 mm; E. coli reporter strain JLD271/pJN105Q/pSC11-Q; 100 mm OdDHL = 100%; error ±10%
Text: as §2, §3, §4

RhlR [5] = biological target: T1, RhlR; test: E. coli reporter gene primary agonism assay, RhlR; type: cell-based; conditions: compounds at 100 mm; 900 mm BHL = 100%; error ±10%; selected data reproduced from Welsh et al., 2015
Method: as §1

LasR [6] = biological target: T3, LasR; test: E. coli reporter gene primary agonism assay, LasR; type: cell-based; conditions: compounds at 100 mm; E. coli reporter strain JLD271/pJN105L/pSC11; 100 mm OdDHL = 100%; error ±10%
Method: as §1

## O=C(Cc1ccc(Br)cc1)N[C@@H]1CCOC1=O [B4]
RhlR [1]
  Inhibition [%] RhlR: 66%
QscR [2]
  Inhibition [%] QsCR: 37%
LasR [3]
  Inhibition [%] LasR: 15%

## O=C(CC1CCCC1)N[C@H]1CCOC1=O [B12]
QscR [4]
  Activation [%] QscR: 12%
RhlR [5]
  Activation [%] RhlR: 79%
LasR [6]
  Activation [%] LasR: −10%

## O=C(Cc1ccccc1)N[C@H]1CCOC1=O [C1]
QscR [4]
  Activation [%] QscR: 3%
RhlR [5]
  Activation [%] RhlR: 84%
LasR [6]
  Activation [%] LasR: −3%

## O=C(Cc1ccc(F)cc1)N[C@H]1CCOC1=O [C2]
QscR [4]
  Activation [%] QscR: 10%
RhlR [5]
  Activation [%] RhlR: 71%
LasR [6]
  Activation [%] LasR: 12%

## O=C(Cc1cccc(F)c1)N[C@H]1CCOC1=O [C3]
QscR [4]
  Activation [%] QscR: 13%
RhlR [5]
  Activation [%] RhlR: 79%
LasR [6]
  Activation [%] LasR: −2%

## O=C(Cc1ccccc1F)N[C@H]1CCOC1=O [C4]
QscR [4]
  Activation [%] QscR: 0%
RhlR [5]
  Activation [%] RhlR: 66%
LasR [6]
  Activation [%] LasR: −4%

## O=C(Cc1cccc(Cl)c1)N[C@H]1CCOC1=O [C6]
QscR [4]
  Activation [%] QscR: 30%
RhlR [5]
  Activation [%] RhlR: 82%
LasR [6]
  Activation [%] LasR: 30%

## O=C(Cc1cccc(Br)c1)N[C@H]1CCOC1=O [C8]
QscR [4]
  Activation [%] QscR: 33%
RhlR [5]
  Activation [%] RhlR: 80%
LasR [6]
  Activation [%] LasR: 44%

## O=C(Cc1ccc(I)cc1)N[C@H]1CCOC1=O [C10]
RhlR [1]
  Inhibition [%] RhlR: 84%
QscR [2]
  Inhibition [%] QsCR: −79%
LasR [3]
  Inhibition [%] LasR: 58%

## O=C(Cc1cccc(I)c1)N[C@H]1CCOC1=O [C11]
QscR [4]
  Activation [%] QscR: 34%
RhlR [5]
  Activation [%] RhlR: 63%
LasR [6]
  Activation [%] LasR: 56%

## O=C(Cc1ccccc1I)N[C@H]1CCOC1=O [C12]
QscR [4]
  Activation [%] QscR: 5%
RhlR [5]
  Activation [%] RhlR: 70%
LasR [6]
  Activation [%] LasR: −4%

## O=C(Cc1ccc([N+](=O)[O-])cc1)N[C@H]1CCOC1=O [C13]
RhlR [1]
  Inhibition [%] RhlR: 60%
QscR [2]
  Inhibition [%] QsCR: 14%
LasR [3]
  Inhibition [%] LasR: 91%

## O=C(Cc1c(F)c(F)c(F)c(F)c1F)N[C@H]1CCOC1=O [C16]
RhlR [1]
  Inhibition [%] RhlR: 66%
QscR [2]
  Inhibition [%] QsCR: 74%
LasR [3]
  Inhibition [%] LasR: 76%

## Cc1ccc(CC(=O)N[C@H]2CCOC2=O)cc1 [C19]
RhlR [1]
  Inhibition [%] RhlR: 87%
QscR [2]
  Inhibition [%] QsCR: 64%
LasR [3]
  Inhibition [%] LasR: 81%

## O=C(Cc1ccc(C(F)(F)F)cc1)N[C@H]1CCOC1=O [C20]
RhlR [1]
  Inhibition [%] RhlR: 86%
QscR [2]
  Inhibition [%] QsCR: 26%
LasR [3]
  Inhibition [%] LasR: 93%

## C=CCCC(=O)N[C@H]1CCOC1=O [D8]
QscR [4]
  Activation [%] QscR: 13%
RhlR [5]
  Activation [%] RhlR: 81%
LasR [6]
  Activation [%] LasR: 26%

## O=C(COc1ccc(OC(F)(F)F)cc1)N[C@H]1CCOC1=O [D15]
RhlR [1]
  Inhibition [%] RhlR: 61%
QscR [2]
  Inhibition [%] QsCR: 4%
LasR [3]
  Inhibition [%] LasR: −80%

## Cc1cccc(CC(=O)N[C@H]2CCOC2=O)c1 [E1]
QscR [4]
  Activation [%] QscR: 29%
RhlR [5]
  Activation [%] RhlR: 69%
LasR [6]
  Activation [%] LasR: 21%

## COc1cccc(CC(=O)N[C@H]2CCOC2=O)c1 [E2]
QscR [4]
  Activation [%] QscR: 26%
RhlR [5]
  Activation [%] RhlR: 86%
LasR [6]
  Activation [%] LasR: 23%

## N#Cc1cccc(CC(=O)N[C@H]2CCOC2=O)c1 [E5]
QscR [4]
  Activation [%] QscR: 34%
RhlR [5]
  Activation [%] RhlR: 67%
LasR [6]
  Activation [%] LasR: 62%

## CSc1ccc(CC(=O)N[C@H]2CCOC2=O)cc1 [E6]
RhlR [1]
  Inhibition [%] RhlR: 78%
QscR [2]
  Inhibition [%] QsCR: 24%
LasR [3]
  Inhibition [%] LasR: 85%

## CSc1cccc(CC(=O)N[C@H]2CCOC2=O)c1 [E7]
QscR [4]
  Activation [%] QscR: 24%
RhlR [5]
  Activation [%] RhlR: 70%
LasR [6]
  Activation [%] LasR: 32%

## O=C(Cc1ccc(SC(F)(F)F)cc1)N[C@H]1CCOC1=O [E8]
RhlR [1]
  Inhibition [%] RhlR: 65%
QscR [2]
  Inhibition [%] QsCR: 40%
LasR [3]
  Inhibition [%] LasR: 23%

## O=C(Cc1ccc(Cl)c(Cl)c1)N[C@H]1CCOC1=O [E11]
RhlR [1]
  Inhibition [%] RhlR: 62%
QscR [2]
  Inhibition [%] QsCR: 15%
LasR [3]
  Inhibition [%] LasR: 28%

## O=C(Cc1ccc2ccccc2c1)N[C@H]1CCOC1=O [E12]
RhlR [1]
  Inhibition [%] RhlR: 77%
QscR [2]
  Inhibition [%] QsCR: 60%
LasR [3]
  Inhibition [%] LasR: 81%

## Cc1ccc(OCC(=O)N[C@H]2CCOC2=O)cc1 [E15]
RhlR [1]
  Inhibition [%] RhlR: 75%
QscR [2]
  Inhibition [%] QsCR: 33%
LasR [3]
  Inhibition [%] LasR: 84%

## COc1ccc(OCC(=O)N[C@H]2CCOC2=O)cc1 [E17]
RhlR [1]
  Inhibition [%] RhlR: 66%
QscR [2]
  Inhibition [%] QsCR: 36%
LasR [3]
  Inhibition [%] LasR: 83%

## O=C(COc1ccc(Br)cc1)N[C@H]1CCOC1=O [E21]
RhlR [1]
  Inhibition [%] RhlR: 66%
QscR [2]
  Inhibition [%] QsCR: 20%
LasR [3]
  Inhibition [%] LasR: 31%

## O=C(COc1ccc(C(F)(F)F)cc1)N[C@H]1CCOC1=O [E23]
RhlR [1]
  Inhibition [%] RhlR: 64%
QscR [2]
  Inhibition [%] QsCR: 22%
LasR [3]
  Inhibition [%] LasR: −49%

## O=C(CCc1ccc(Cl)cc1)N[C@H]1CCOC1=O [E30]
QscR [4]
  Activation [%] QscR: 79%
RhlR [5]
  Activation [%] RhlR: 64%
LasR [6]
  Activation [%] LasR: 53%

## O=C(CCc1cccc(Br)c1)N[C@H]1CCOC1=O [E31]
QscR [4]
  Activation [%] QscR: 58%
RhlR [5]
  Activation [%] RhlR: 65%
LasR [6]
  Activation [%] LasR: 71%

## CSc1ccc(CCC(=O)N[C@H]2CCOC2=O)cc1 [E34]
RhlR [1]
  Inhibition [%] RhlR: 62%
QscR [2]
  Inhibition [%] QsCR: −190%
LasR [3]
  Inhibition [%] LasR: −52%

## O=C(CCc1ccc([N+](=O)[O-])cc1)N[C@H]1CCOC1=O [E37]
QscR [4]
  Activation [%] QscR: 65%
RhlR [5]
  Activation [%] RhlR: 69%
LasR [6]
  Activation [%] LasR: 22%

## O=C(CCCC1CCCCC1)N[C@H]1CCOC1=O [S6]
RhlR [1]
  Inhibition [%] RhlR: 69%
QscR [2]
  Inhibition [%] QsCR: 34%
LasR [3]
  Inhibition [%] LasR: 56%
